Reference: ChEMBL document CHEMBL1201862, “PubChem BioAssay data set” (2004)
Each block holds one compound with its values, some of them ahead of it. Calls of active or inactive are those of the source.

Experiments:
Prothrombin = Prothrombin (Homo sapiens, UniProt P00734); assay: Thrombin 1536 HTS Dose Response Confirmation. [Related pubchem assays: 1046 (Thrombin 1536 HTS; hits were confirmed in this assay)]; format: functional
cells [1] = format: functional, cell-based
[2] = inhibitors of intracellular T. cruzi replication, confirmation, NIH3T3 host cells, beta-gal luminescence (AID 2044); format: functional, cell-based;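 further: intracellular parasites grown in NIH/3T3 mouse fibroblasts as host cells; luminescent beta-galactosidase reporter signal from transgenic T. cruzi replicating inside host cells; inhibitors lower the luminescence signal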
cells [3] = format: functional, cell-based; remark: listed apart in the source
[4] = cytotoxicity toward NIH3T3 fibroblasts, dose response, counter-screen, cell-based, ATP luminescence, mouse fibroblasts (AID 2010); format: functional;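 further: cells exposed to compound for about 90 hours before reading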
INS1 = assay: beta cell apoptosis inhibitors, cytokine rescue, dose response, luminescence, retest (AID 449756); format: functional, cell-based; settings: Rattus norvegicus;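 further: cell death triggered by IL-1 beta plus TNF-alpha plus IFN-gamma mixture; protective hits raise ATP signal compared with cytokine alone wells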
[5] = target: DNA (cytosine-5)-methyltransferase 1 (Homo sapiens, UniProt P26358); assay: DNMT1 methyltransferase inhibitors, confirmation, biochemical, fluorescent molecular beacon (AID 602386); format: functional
Sequence of DNA (cytosine-5)-methyltransferase 1 (P26358 whole entry): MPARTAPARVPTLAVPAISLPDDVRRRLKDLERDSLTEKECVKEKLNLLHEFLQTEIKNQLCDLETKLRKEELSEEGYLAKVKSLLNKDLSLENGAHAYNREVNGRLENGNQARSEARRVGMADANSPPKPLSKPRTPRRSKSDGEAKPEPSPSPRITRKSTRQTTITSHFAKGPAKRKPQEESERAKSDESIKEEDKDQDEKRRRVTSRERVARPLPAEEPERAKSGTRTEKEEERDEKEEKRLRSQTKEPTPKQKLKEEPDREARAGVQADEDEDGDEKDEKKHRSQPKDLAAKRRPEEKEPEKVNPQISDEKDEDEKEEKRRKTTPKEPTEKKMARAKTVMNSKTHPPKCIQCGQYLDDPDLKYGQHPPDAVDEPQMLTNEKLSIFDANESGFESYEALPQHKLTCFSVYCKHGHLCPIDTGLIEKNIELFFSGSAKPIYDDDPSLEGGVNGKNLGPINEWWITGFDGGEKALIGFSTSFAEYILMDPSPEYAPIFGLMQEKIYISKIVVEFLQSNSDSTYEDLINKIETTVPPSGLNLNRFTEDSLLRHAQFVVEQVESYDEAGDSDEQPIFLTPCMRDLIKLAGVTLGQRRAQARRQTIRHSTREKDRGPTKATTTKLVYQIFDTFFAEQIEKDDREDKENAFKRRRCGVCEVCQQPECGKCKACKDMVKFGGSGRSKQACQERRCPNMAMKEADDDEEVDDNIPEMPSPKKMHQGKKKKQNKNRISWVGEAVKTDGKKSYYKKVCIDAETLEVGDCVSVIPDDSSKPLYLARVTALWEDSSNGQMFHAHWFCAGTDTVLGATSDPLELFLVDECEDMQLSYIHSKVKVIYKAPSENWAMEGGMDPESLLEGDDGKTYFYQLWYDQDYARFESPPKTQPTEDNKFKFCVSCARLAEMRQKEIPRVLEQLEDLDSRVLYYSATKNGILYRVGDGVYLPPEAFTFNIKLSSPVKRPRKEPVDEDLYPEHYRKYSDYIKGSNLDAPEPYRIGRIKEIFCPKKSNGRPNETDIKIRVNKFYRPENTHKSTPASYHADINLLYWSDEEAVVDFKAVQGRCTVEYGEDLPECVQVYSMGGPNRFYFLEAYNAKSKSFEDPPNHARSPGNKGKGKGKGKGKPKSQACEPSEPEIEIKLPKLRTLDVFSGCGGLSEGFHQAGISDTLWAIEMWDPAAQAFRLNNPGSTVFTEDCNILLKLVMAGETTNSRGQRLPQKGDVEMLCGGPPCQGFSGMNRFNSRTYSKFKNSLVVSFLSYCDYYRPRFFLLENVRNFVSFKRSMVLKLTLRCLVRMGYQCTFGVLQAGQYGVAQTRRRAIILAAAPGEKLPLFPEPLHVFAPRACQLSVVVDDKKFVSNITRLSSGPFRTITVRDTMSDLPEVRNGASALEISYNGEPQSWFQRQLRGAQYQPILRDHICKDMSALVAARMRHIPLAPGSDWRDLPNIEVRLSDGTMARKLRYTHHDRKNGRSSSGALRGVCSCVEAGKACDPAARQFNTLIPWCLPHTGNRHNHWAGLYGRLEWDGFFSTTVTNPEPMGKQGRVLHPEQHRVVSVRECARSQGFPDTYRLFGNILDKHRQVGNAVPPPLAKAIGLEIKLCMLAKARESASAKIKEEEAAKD

[6] = target: SWI/SNF-related matrix-associated actin-dependent regulator of chromatin subfamily A member 2 (Homo sapiens, UniProt P51531); assay: Luminescence-based cell-based high throughput dose response assay to identify activators of the function of SWI/SNF related, matrix associated, actin dependent regulator of chromatin, subfamily a, member 2 (SMARCA2, BRM).; format: functional
[7] = Counterscreen for activators of the function of SWI/SNF related, matrix associated, actin dependent regulator of chromatin, subfamily a, member 2 (SMARCA2, BRM): Luminescence-based cell-based high throughput dose response assay to identify non-selective compounds using the VP16 reporter assay.; format: functional
[8] = target: T1, DNA repair protein RAD52 homolog (Homo sapiens, UniProt P43351); format: functional, biochemical
T1 sequence (P43351 whole entry): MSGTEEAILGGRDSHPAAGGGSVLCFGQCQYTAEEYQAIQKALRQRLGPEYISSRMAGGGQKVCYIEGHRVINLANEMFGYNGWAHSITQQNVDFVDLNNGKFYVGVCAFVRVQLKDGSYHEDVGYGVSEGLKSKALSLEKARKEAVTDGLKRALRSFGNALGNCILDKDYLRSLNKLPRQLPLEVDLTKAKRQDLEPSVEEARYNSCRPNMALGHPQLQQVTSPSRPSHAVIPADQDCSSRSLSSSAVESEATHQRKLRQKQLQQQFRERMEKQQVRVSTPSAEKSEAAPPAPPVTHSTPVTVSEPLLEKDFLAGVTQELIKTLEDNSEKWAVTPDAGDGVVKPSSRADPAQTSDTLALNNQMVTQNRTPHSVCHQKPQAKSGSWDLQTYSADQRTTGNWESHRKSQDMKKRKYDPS

[9] = target: E3 ubiquitin-protein ligase UHRF1 (Homo sapiens, UniProt Q96T88); assay: Counterscreen for inhibitors of 5-meCpG-binding domain protein 2 (MBD2): TRFRET-based biochemical high throughput dose response assay to identify inhibitors of binding of ubiquitin-like with PHD and ring finger domains 1 (UHRF1) to methylated oligonucleotide.
Sequence of E3 ubiquitin-protein ligase UHRF1 (Q96T88 whole entry, the tested form may be a part): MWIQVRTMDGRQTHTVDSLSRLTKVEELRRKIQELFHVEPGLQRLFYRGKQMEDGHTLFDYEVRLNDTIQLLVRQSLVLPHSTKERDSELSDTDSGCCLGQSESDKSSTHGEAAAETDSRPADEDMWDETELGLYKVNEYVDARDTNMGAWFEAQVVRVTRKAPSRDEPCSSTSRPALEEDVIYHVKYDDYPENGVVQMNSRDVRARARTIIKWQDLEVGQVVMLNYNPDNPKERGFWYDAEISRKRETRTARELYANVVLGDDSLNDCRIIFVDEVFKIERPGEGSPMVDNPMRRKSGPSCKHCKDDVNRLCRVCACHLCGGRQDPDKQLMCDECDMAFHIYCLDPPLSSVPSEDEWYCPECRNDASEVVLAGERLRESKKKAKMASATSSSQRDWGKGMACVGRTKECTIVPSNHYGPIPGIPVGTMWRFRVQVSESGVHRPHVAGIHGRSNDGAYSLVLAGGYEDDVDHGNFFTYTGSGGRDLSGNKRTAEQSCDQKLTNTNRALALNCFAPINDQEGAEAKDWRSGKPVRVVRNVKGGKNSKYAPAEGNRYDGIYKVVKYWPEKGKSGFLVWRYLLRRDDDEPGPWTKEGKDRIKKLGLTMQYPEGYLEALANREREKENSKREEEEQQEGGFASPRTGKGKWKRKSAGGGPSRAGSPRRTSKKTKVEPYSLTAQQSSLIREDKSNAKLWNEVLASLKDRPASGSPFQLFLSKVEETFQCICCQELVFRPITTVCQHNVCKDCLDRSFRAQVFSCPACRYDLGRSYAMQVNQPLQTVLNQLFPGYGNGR

Galanin receptor type 3 = Galanin receptor type 3 (Homo sapiens, UniProt O60755); assay: Fluorescence-based cell-based primary high throughput dose response assay to identify antagonists of the Galanin Receptor 3 (GalR3).; format: functional
Sequence of Galanin receptor type 3 (O60755 whole entry): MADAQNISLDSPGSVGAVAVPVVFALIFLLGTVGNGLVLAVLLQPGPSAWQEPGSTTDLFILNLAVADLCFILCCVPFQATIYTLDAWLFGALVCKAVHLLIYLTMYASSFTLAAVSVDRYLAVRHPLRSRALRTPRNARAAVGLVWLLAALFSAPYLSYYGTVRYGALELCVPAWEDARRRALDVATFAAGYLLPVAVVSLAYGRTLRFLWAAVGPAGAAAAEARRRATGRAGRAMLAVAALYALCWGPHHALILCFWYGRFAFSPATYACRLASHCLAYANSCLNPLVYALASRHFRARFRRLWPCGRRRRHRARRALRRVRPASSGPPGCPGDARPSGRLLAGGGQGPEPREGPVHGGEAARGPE

cells [10] = format: functional, cell-based; settings: HEK-CNG
[11] = target: T2, COUP transcription factor 2 (Homo sapiens, UniProt P24468); assay: Luminescence-based cell-based high throughput dose response assay to identify inhibitors of COUP-TFII (NR2F2).; format: functional;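 further: HEK293 cells transiently cotransfected with COUP-TFII expression vector and reporter; luciferase reporter luminescence driven by COUP-TFII from the pX2-168 reporter plasmid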
T2 sequence (P24468 whole entry): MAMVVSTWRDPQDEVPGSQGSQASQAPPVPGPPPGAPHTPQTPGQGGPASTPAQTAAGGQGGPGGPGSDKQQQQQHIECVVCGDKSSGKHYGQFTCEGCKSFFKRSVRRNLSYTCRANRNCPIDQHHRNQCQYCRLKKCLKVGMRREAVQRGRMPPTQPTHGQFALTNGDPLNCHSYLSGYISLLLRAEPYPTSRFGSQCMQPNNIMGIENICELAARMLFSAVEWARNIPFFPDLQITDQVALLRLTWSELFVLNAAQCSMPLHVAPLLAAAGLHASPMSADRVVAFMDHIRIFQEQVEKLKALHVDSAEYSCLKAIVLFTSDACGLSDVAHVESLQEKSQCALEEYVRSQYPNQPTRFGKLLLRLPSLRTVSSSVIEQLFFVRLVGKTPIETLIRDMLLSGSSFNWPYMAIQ

[12] = target: T3, Ubiquitin-conjugating enzyme E2 N (Homo sapiens, UniProt P61088); format: functional;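 further: Dose-response confirmation in a TR-FRET assay detecting UBC13-driven polyubiquitin chain formation, inhibition measured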
T3 sequence (P61088 whole entry): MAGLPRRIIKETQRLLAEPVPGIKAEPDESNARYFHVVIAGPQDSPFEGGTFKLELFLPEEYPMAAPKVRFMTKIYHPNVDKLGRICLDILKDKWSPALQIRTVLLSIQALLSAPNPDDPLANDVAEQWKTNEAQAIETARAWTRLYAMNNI

[13] = target: RNA-editing ligase 1, mitochondrial (Trypanosoma brucei brucei, UniProt P86926); assay: TbREL1 ligase inhibitors, dose response, biochemical, fluorescence, Trypanosoma brucei (AID 1117295); format: functional
Sequence of RNA-editing ligase 1, mitochondrial (P86926 whole entry): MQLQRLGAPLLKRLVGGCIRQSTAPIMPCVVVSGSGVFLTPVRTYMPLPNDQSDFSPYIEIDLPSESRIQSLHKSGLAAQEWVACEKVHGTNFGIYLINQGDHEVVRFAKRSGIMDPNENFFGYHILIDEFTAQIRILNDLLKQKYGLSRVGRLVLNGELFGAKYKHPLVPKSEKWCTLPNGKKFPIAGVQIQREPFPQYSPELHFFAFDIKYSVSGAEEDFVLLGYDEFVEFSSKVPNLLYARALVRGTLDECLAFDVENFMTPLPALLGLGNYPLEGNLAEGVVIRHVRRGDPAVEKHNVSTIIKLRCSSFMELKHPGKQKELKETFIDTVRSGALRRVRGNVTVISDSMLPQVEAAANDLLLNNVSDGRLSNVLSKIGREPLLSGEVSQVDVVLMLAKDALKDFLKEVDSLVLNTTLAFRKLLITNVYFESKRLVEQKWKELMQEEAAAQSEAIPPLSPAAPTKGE

[14] = ADAM10 inhibitors, peptide cleavage, dose response, biochemical, QFRET (AID 743254);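 further: ADAM10 enzyme with the DM2 quenched FRET peptide as substrate; EDANS fluorescence gain as the protease cuts the substrate; inhibitor potency against ADAM10 proteolytic activity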
[15] = target: Disintegrin and metalloproteinase domain-containing protein 17 (Homo sapiens, UniProt P78536); assay: ADAM17 protease inhibitors, dose response, counter-screen for ADAM10 exosite inhibitor project, biochemical, quenched FRET substrate (AID 743253)
Sequence of Disintegrin and metalloproteinase domain-containing protein 17 (P78536 whole entry, the tested form may be a part): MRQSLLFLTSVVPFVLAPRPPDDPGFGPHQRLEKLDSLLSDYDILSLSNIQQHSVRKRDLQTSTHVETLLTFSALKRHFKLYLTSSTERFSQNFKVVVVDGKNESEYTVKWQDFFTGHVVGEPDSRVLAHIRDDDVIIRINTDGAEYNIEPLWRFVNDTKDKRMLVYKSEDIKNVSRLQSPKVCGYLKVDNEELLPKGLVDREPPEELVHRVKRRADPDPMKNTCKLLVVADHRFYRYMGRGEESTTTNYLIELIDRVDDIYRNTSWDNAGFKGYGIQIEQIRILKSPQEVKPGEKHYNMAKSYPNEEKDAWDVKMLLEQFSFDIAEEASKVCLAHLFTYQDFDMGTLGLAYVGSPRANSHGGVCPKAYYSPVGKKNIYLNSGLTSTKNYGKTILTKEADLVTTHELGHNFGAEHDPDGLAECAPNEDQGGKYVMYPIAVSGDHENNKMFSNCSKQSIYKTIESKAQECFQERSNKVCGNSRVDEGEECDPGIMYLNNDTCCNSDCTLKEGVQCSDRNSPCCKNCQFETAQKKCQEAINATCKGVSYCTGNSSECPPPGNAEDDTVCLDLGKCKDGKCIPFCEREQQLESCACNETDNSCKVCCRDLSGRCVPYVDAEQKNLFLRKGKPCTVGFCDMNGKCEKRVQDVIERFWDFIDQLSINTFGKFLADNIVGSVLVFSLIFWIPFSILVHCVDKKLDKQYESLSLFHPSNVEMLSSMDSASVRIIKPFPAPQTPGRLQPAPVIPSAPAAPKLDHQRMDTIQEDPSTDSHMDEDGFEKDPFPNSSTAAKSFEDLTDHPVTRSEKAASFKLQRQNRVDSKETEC

[16] = miR-122 activators in hepatoma reporter cells, dose response, cell-based, Huh7 psiCHECK-miR122, Renilla luciferase, cherry-picked (AID 651956); format: functional;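 further: huh7 hepatoma cells stably carrying a psiCHECK-2 miR-122 sensor plasmid; renilla luciferase signal reporting endogenous miR-122 activity after 48 h compound exposure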
[17] = HEK293T cytotoxicity, dose response, cytotoxicity control for miR-122 modulator project, cell-based, activator set, cherry-pick (AID 720690); format: functional;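 further: HEK293T human cells scored for general mammalian cytotoxicity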
[18] = P. falciparum Dd2 growth inhibitors, dose response, SYBR Green, dry powder samples, set 9 (AID 1159568); format: functional, cell-based
[19] = inhibitors of HIV Env-driven cell fusion, dose response, cherry-pick (AID 652057); format: functional, cell-based
[20] = CEM21 lymphoblast cell cytotoxicity, dose response, cytotoxicity control for viral fusion inhibitor project, CellTiter-Glo luminescence, cherry-picked (AID 652042); format: functional, cell-based;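 further: potency for signal decrease meaning cytotoxicity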
[21] = ZM109 Env clade C HIV-1 fusion inhibitors, dose response, HeLa effector, CEM target cells, luciferase, cherry-pick (AID 652058); format: functional, cell-based
[22] = inhibitors of clade B AD8 Env fusion, dose response, cell-based, cherry-pick (AID 652062); format: functional;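 further: luciferase signal from cell-cell fusion driven by HIV-1 clade B AD8 Env; potency is for inhibitors of fusion seen as a drop in luminescence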
[23] = target: Endoplasmic reticulum aminopeptidase 1 (Homo sapiens, UniProt Q9NZ08); assay: ERAP1 aminopeptidase inhibitors, dose response, biochemical, cherry-pick, set 2, plate reader (AID 743314)
Sequence of Endoplasmic reticulum aminopeptidase 1 (Q9NZ08 whole entry): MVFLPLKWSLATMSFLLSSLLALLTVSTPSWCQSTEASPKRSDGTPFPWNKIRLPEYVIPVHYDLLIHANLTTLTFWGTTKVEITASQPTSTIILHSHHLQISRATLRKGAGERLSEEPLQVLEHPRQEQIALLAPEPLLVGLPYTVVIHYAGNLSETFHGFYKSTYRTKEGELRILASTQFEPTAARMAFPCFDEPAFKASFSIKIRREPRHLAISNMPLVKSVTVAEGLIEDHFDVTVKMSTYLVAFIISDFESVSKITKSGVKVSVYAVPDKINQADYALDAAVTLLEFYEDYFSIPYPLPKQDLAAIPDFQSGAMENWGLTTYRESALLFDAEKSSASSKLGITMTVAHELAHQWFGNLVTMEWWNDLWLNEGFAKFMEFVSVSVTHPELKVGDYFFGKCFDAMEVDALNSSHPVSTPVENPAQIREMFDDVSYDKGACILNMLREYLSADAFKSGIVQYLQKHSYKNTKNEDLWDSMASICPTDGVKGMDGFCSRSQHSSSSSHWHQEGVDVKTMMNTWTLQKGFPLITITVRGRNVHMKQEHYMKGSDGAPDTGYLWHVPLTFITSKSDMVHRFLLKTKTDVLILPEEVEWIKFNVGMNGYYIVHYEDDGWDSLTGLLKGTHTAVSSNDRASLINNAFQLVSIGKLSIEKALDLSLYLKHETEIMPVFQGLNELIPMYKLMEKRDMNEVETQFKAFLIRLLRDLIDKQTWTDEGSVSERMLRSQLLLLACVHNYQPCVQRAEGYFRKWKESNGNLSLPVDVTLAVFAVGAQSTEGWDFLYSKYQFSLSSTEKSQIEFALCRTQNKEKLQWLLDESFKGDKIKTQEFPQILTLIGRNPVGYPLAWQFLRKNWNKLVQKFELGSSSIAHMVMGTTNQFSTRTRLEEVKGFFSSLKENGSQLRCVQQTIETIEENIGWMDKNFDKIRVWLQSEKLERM

[24] = target: T4, Low molecular weight phosphotyrosine protein phosphatase (Homo sapiens, UniProt P24666); assay: LMPTP phosphatase inhibitors, dose response, biochemical, OMFP substrate, fluorescence intensity, set 2 (AID 743307); format: functional
T4 sequence (P24666 whole entry): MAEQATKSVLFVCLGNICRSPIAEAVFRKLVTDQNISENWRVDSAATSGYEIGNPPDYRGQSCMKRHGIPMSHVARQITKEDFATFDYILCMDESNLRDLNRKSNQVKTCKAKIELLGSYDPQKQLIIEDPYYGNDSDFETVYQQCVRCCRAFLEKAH

[25] = target: T4, Low molecular weight phosphotyrosine protein phosphatase; assay: LMPTP phosphatase inhibitors, colorimetric pNPP readout, dose response, orthogonal assay, biochemical, absorbance, pNPP substrate, LMPTP-A isoform, set 2 (AID 743308); format: functional

SMILES: CCN(CC)CCC(=O)Nc1cccc2c1C(=O)c1ccccc1C2=O
- EC50 (cells [1]): > 350 µM (not active)
- EC50 [2]: 0.61 µM (active)
- EC50 (cells [3]): 59.3 µM (active)
- EC50 [4]: 13.4 µM (active)
- AC50 (INS1): 4.28 µM (active)
- IC50 [5]: 6.86 µM (active)
- EC50 [6]: 9.64 µM (active)
- EC50 [7]: > 91.3 µM (inactive)
- AC50 [8]: 0.801 µM (active)
- IC50 [9]: > 43.8 µM (inactive)

SMILES: Cc1ccccc1Cn1c(C)nc2ccccc21
- IC50 (Galanin receptor type 3): 0.331 µM (active)
- EC50 (cells [10]): > 29.9 µM (inactive)
- IC50 [11]: 13.2 µM (inactive)

SMILES: CN1C(=O)c2cc(NC(=O)c3ccc(C(F)(F)F)cc3)ccc2OC[C@H]2O[C@H](CC(=O)NCc3ccc4c(c3)OCO4)CC[C@@H]21
- AC50 [16]: 8.04 µM (active)
- AC50 [17]: 22 µM (active)
- AC50 [18]: 12.6 µM (active)

SMILES: C[C@@H]1CN([C@H](C)CO)S(=O)(=O)c2ccc(C3=CCCCC3)cc2O[C@@H]1CN(C)S(=O)(=O)c1ccc(F)cc1
- AC50 [19]: 8.56 µM (active)
- AC50 [20]: 32.5 µM (active)
- AC50 [21]: 12.1 µM (active)
- AC50 [22]: 7.76 µM (active)

SMILES: COC(=O)[C@H]1[C@H](CO)[C@H]2Cn3c(ccc(/C=C/c4ccccc4)c3=O)[C@@H]1N2C(=O)C1CCC1
- AC50 [23]: 4.93 µM (active)

SMILES: O=C(O)C[C@H]1CC[C@@H]2[C@H](COC[C@@H](O)CN2S(=O)(=O)c2ccc(Oc3ccccc3)cc2)O1
- AC50 [18]: 31.1 µM (active)

Results, then the compound that gave them:

- IC50 (Prothrombin): 1.48 µM (active)
SMILES: CCC(=O)n1nc(-c2ccc(OC)cc2)nc1NCc1cccs1

- IC50 [12]: > 20 µM (inactive)
- IC50 [13]: > 96.6 µM (inactive)
SMILES: CC[C@@H](C)[C@@H]1CN([C@@H](C)CN2CCC[C@H]2CN2C(N)=NC[C@H]2C(C)C)C(=N)N1CCc1ccc(Cl)c(Cl)c1

- IC50 [14]: 10.3 µM (inactive)
- IC50 [15]: > 69.5 µM (inactive)
SMILES: CCCCCCNC(=O)O[C@H]1Cn2c(=O)n(CCCCCC)c(=O)n2[C@@H]2CN(S(=O)(=O)c3ccc(C)cc3)C[C@]12O

- IC50 [24]: 1.54 µM (active)
- IC50 [25]: 2.88 µM (active)
SMILES: Clc1ccc(-c2cc(NCCCN3CCCCC3)c3ccccc3n2)cc1

- IC50 [13]: > 96.6 µM (inactive)
SMILES: COC(=O)C1=C(C)N(Cc2cccc(C(F)(F)F)c2)C(NCc2ccccc2C(F)(F)F)=NC1c1ccccc1C(F)(F)F (configuration not stated)

- IC50 [24]: > 80 µM (inactive)
- IC50 [25]: > 80 µM (inactive)
SMILES: c1ccc(-c2nc(N3CCCCC3)c3ccccc3n2)cc1
